Assay results: patent US5556878A, “Δ^6,7 -taxols antineoplatic use and pharmaceutical compositions containing them” (The Upjohn Company, priority 1994, dated 1996)
Converted amounts (≈) assume the structure as drawn. Read-outs that look alike come from different tables or passages of the source.

How the values were obtained:
[1] = test system: L1210 mouse leukemia carcinoma cells; assay: Cytotoxicity in L1210 mouse leukemia carcinoma cells in culture (IC90); type: cell-based; conditions: read-out: IC90 (90% growth inhibitory concentration)
Description: (§1) The biological activity of the 7-deoxy-7β,8β-methanotaxol compounds (Formula II) of the invention has been confirmed using well known procedures.

[2] = test system: L1210 leukemia; assay: L1210 leukemia cell proliferation inhibition (Table I); type: cell-based; conditions: Mus musculus
Description: The biological activity of the compounds of this invention has been further confirmed using well known procedures against L1210 leukemia and the results set forth in Table I. The results were obtained using standard well known procedure (Li, L. H.; Kuentzel, S. L.; Murch, L. L.; Pschigoga, L. M.; and W. C. Krueger, "Comparative biological and biochemical effects of nogalamycin and its analogs on L1210 leukemia," Cancer Res. 39:4816-4822 (1979)). The results are expressed as an IC50 which is the drug concentration required to inhibit cell proliferation to 50% of that of untreated control cells. Lower numbers indicated greater activity.

[3] = test system: tubulin; assay: In vitro tubulin polymerization assay after Gaskin et al.; type: biochemical; conditions: 20° C.; for induction of tubulin polymerization in vitro: compared with taxol
Description: as §1
(§2) The biological activity of the 7-deoxy-7-halotaxol compounds (Formula III) of the invention has been confirmed using well known procedures.

[4] = test system: A2780 (human ovarian carcinoma) cells; assay: Cytotoxicity in A2780 (human ovarian carcinoma) cells in culture (IC90); type: cell-based; conditions: read-out: IC90 (90% growth inhibitory concentration)
Description: as §2

[5] = L1210, drug concentration required to inhibit cell proliferation to 50% of untreated control cells, read-out: L1210 (IC50 μg/ml)
[6] = L1210, read-out: L1210 (IC50 μg/ml)

Structure (SMILES)	IC50 [2, 5] [µg/mL]	other results
CC(=O)O[C@H]1C(=O)[C@]23C[C@H]2C[C@H]2OC[C@@]2(OC(C)=O)[C@H]3[C@H](OC(=O)c2ccccc2)[C@]2(O)C[C@H](OC(=O)[C@H](O)[C@@H](NC(=O)c3ccccc3)c3ccccc3)C(C)=C1C2(C)C [Compound IIb, 7-Deoxy-7β,8β-methanotaxol]	0.012 (≈ 0.0144 µM)	IC90 [1]: 0.025 µg/mL (≈ 0.0299 µM); induction of tubulin polymerization in vitro [3]: able to induce tubulin polymerization in vitro at 20 °C in a manner very similar to taxol
CC(=O)O[C@H]1C(=O)[C@]2(C)C=C[C@H]3OC[C@@]3(OC(C)=O)[C@H]2[C@H](OC(=O)c2ccccc2)[C@]2(O)C[C@H](OC(=O)[C@H](O)[C@@H](NC(=O)NC(C)(C)C)c3ccccc3)C(C)=C1C2(C)C [Compound 16F, 13-(N-t-Butylurea-β-phenyl-isoserinyl)-Δ^6,7-baccatin III]	–	IC50 [2, 6]: 0.0032 µg/mL (≈ 0.00385 µM)
CC(=O)O[C@H]1C(=O)[C@]2(C)C=C[C@H]3OC[C@@]3(OC(C)=O)[C@H]2[C@H](OC(=O)c2ccccc2)[C@]2(O)C[C@H](OC(=O)[C@H](O)[C@@H](NC(=O)OC(C)(C)C)c3ccccc3)C(C)=C1C2(C)C [Compound 16D, N-Debenzoyl-N-(t-butyl)oxycarbonyl-7-deoxy-Δ^6,7-taxol]	–	IC50 [2, 6]: 0.0016 µg/mL (≈ 0.00192 µM)
CC(=O)O[C@H]1C(=O)[C@]23C[C@H]2C[C@H]2OC[C@@]2(OC(C)=O)[C@H]3[C@H](OC(=O)c2ccccc2)[C@]2(O)C[C@H](OC(=O)[C@H](OC(=O)OCC(Cl)(Cl)Cl)[C@@H](NC(=O)OC(C)(C)C)c3ccccc3)C(C)=C1C2(C)C [Compound 14DA, N-Debenzoyl-N-(t-butyl)oxycarbonyl-2'-{[(2,2,2-trichloroethyl)oxy]carbonyl}-7-deoxy-7β,8β-methanotaxol]	0.012 (≈ 0.0119 µM)	–
CC(=O)O[C@H]1C(=O)[C@]2(C)C=C[C@H]3OC[C@@]3(OC(C)=O)[C@H]2[C@H](OC(=O)c2ccccc2)[C@]2(O)C[C@H](OC(=O)[C@H](OC(=O)OCC(Cl)(Cl)Cl)[C@@H](NC(=O)c3ccccc3)c3ccccc3)C(C)=C1C2(C)C [Compound 15AA, 2'-{[(2,2,2-Trichloroethyl)oxy]carbonyl)-7-deoxy-Δ^6,7-taxol]	0.012 (≈ 0.0119 µM)	–
CC(=O)O[C@H]1C(=O)[C@]2(C)C(F)C[C@H]3OC[C@@]3(OC(C)=O)[C@H]2[C@H](OC(=O)c2ccccc2)[C@]2(O)C[C@H](OC(=O)[C@H](O)[C@@H](NC(=O)c3ccccc3)c3ccccc3)C(C)=C1C2(C)C (stereo partly drawn) [Compound IIIb, 7-Deoxy-7-fluorotaxol]	0.01 (≈ 0.0117 µM)	IC90 [4]: 0.016 µg/mL (≈ 0.0187 µM); potency in tubulin polymerization assay relative to taxol [3]: approximately half as potent as taxol; induction of tubulin polymerization in vitro [3]: able to induce tubulin polymerization in vitro at 20 °C in a manner very similar to taxol
CC(=O)O[C@H]1C(=O)[C@]2(C)C(F)C[C@H]3OC[C@@]3(OC(C)=O)[C@H]2[C@H](OC(=O)c2ccccc2)[C@]2(O)C[C@H](OC(=O)[C@H](OC(=O)OCC(Cl)(Cl)Cl)[C@@H](NC(=O)c3ccccc3)c3ccccc3)C(C)=C1C2(C)C (stereo partly drawn) [Compound 13AA, 2'-{[(2,2,2-Trichloroethyl)-oxy]carbonyl)-7-deoxy-7-fluorotaxol]	0.054 (≈ 0.0524 µM)	–
CC(=O)O[C@H]1C(=O)[C@]2(C)C(F)C[C@H]3OC[C@@]3(OC(C)=O)[C@H]2[C@H](OC(=O)c2ccccc2)[C@]2(O)C[C@H](OC(=O)[C@H](OC(=O)OCC(Cl)(Cl)Cl)[C@@H](NC(=O)OC(C)(C)C)c3ccccc3)C(C)=C1C2(C)C (stereo partly drawn) [Compound 13DA, N-Debenzoyl-N-(t-butyl)oxycarbonyl-2'-{[(2,2,2-trichloroethyl)oxy]carbonyl}-7-deoxy-7-fluorotaxol]	0.015 (≈ 0.0146 µM)	–
CC(=O)O[C@H]1C(=O)[C@@]2(C)[C@H]([C@H](OC(=O)c3ccccc3)[C@]3(O)C[C@H](OC(=O)[C@H](O)[C@@H](NC(=O)c4ccccc4)c4ccccc4)C(C)=C1C3(C)C)[C@]1(OC(C)=O)CO[C@@H]1C[C@@H]2O [Taxol]	0.015 (≈ 0.0176 µM)	IC90 [1]: 0.06 µg/mL (≈ 0.0703 µM); IC90 [4]: 0.007 µg/mL (≈ 0.0082 µM)
CC(=O)O[C@H]1C(=O)[C@]2(C)C(F)C[C@H]3OC[C@@]3(OC(C)=O)[C@H]2[C@H](OC(=O)c2ccccc2)[C@]2(O)C[C@H](OC(=O)[C@H](O)[C@@H](NC(=O)OC(C)(C)C)c3ccccc3)C(C)=C1C2(C)C (stereo partly drawn) [Compound 20, N-Debenzoyl-N-(t-butyl)oxycarbonyl-7-deoxy-7-fluorotaxol]	0.0038 (≈ 0.00446 µM)	–
CC(=O)O[C@H]1C(=O)[C@]23C[C@H]2C[C@H]2OC[C@@]2(OC(C)=O)[C@H]3[C@H](OC(=O)c2ccccc2)[C@]2(O)C[C@H](OC(=O)[C@H](OC(=O)OCC(Cl)(Cl)Cl)[C@@H](NC(=O)c3ccccc3)c3ccccc3)C(C)=C1C2(C)C [Compound 14AA, 2'-{[(2,2,2-Trichloroethyl)oxy]carbonyl}-7-deoxy-7β,8β-methanotaxol]	> 0.1	–
CC(=O)O[C@H]1C(=O)[C@]2(C)C=C[C@H]3OC[C@@]3(OC(C)=O)[C@H]2[C@H](OC(=O)c2ccccc2)[C@]2(O)C[C@H](OC(=O)[C@H](O)[C@@H](NC(=O)c3ccccc3)c3ccccc3)C(C)=C1C2(C)C [Compound 16A, 7-Deoxy-Δ^6,7-taxol]	0.0042 (≈ 0.00502 µM)	–
CC(=O)O[C@H]1C(=O)[C@]23C[C@H]2C[C@H]2OC[C@@]2(OC(C)=O)[C@H]3[C@H](OC(=O)c2ccccc2)[C@]2(O)C[C@H](OC(=O)[C@H](O)[C@@H](NC(=O)OC(C)(C)C)c3ccccc3)C(C)=C1C2(C)C [Compound 23, N-Debenzoyl-N-(t-butyl)oxycarbonyl-7-deoxy-7β,8β-methanotaxol]	0.0046 (≈ 0.00553 µM)	–
CC(=O)O[C@@]12CO[C@@H]1C[C@H](O)[C@@]1(C)C(=O)[C@H](O)C3=C(C)[C@@H](OC(=O)[C@H](O)[C@@H](NC(=O)OC(C)(C)C)c4ccccc4)C[C@@](O)([C@@H](OC(=O)c4ccccc4)[C@H]21)C3(C)C [Taxotere, reference compound]	0.004 (≈ 0.00495 µM)	–
